The compounds below were run against T1, δ-Selinene Synthase (ag4) (SEQ ID No. 20) (Abies grandis, UniProt O64404) (assay: Product profile of recombinant δ-selinene synthase in vitro (preparative assay, GLC-MS)). Conditions: from [1-3H]farnesyl diphosphate; total ion current chromatogram.
T1 construct: made in house; host or cells: E. coli XL1-Blue/pGAG4 or E. coli BL21(DE3)/pSBAG4
T1 sequence (O64404 1-581): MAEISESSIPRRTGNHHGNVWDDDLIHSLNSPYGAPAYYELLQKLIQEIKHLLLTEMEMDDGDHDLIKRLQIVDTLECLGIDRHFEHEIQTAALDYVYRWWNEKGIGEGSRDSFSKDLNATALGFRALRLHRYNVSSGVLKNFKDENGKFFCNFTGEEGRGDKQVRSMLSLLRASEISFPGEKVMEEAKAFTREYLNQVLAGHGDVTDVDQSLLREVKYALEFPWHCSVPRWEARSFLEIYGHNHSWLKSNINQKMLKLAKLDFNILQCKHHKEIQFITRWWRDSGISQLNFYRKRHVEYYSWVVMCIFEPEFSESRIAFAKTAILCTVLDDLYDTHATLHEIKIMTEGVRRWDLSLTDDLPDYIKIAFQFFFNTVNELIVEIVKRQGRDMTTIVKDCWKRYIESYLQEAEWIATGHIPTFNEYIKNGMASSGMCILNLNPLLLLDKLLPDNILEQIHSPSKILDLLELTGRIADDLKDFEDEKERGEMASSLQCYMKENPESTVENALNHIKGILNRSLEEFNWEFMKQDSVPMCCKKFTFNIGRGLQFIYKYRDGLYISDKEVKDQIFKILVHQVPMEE
Type: biochemical
Protocol: (§1) For preparative incubations, the assay was scaled to 5 ml containing the total protein extracted from 100 ml of bacterial culture and 30 μM [1-^3H]farnesyl diphosphate, and the incubation time was extended to 8 h. Aliquots of the olefin fraction and the fraction containing oxygenated metabolites (diethyl ether eluate) were evaluated by liquid scintillation counting, and were analyzed by radio-GLC (Croteau, R. & Cane. D. E. (1985) Methods Enzymol. 110, 383-405; Satterwhite, D. M. & Croteau, R. (1988) J. Chromatogr. 452, 61-73) using a Gow-Mac 550P chromatograph that was equipped with a 3.18 mm×3.66 m stainless steel column packed with 5% OV17 (50% phenyl:50% methylsiloxane) on 100/120 mesh Gas Chrom Q (Alltech) and programmed from 150° C. to 220° C. at 2° C./min with He as carrier. The elution of co-injected standards was monitored with the Gow-Mac thermal conductivity detector (250° C. and 150 mA) and the radioactivity signal was continuously monitored with a Nuclear Chicago Model 8731 gas proportional counter; output data were processed using Perkin-Elmer Turbochrom Software.
(§2) Expression of Sesquiterpene Synthase cDNAs AG4 (SEQ ID No:19) and AG5. (SEQ ID No:23) in E. coli. Both putative sesquiterpene cyclase cDNAs (SEQ ID Nos:19 and 23) were expressed in bacterial strains E. coli XL1-Blue/pGAG4, E. coli XL1-Blue/pGAG5, E. coli BL21(DE3)/pSBAG4, and E. coli BL21(DE3)/pSBAG5 as set forth in EXAMPLE 7. Bacteria were grown to A600=0.5 at 37° C. in 5 ml or 100 ml of LB medium supplemented with 100 μg ampicillin/ml or 30 μg kanamycin/ml as determined by the vector. Cultures were then induced by addition of 1 mM isopropyl-1-thio-β-D-galactopyranoside and grown for another 12 h at 20° C. Cells were harvested by centrifugation (2000×g, 10 min) and resuspended in either 1 ml or 5 ml sesquiterpene synthase assay buffer (EXAMPLE 2). Cells were disrupted by sonication (Braun-Sonic 2000 with microprobe at maximum power for 15 seconds at 0-4° C.) and the homogenates were cleared by centrifugation (18,000×g, 10 min). Preparative assays were employed to generate product for GLC-MS analysis, as set forth in EXAMPLE 2, with quantification of composition via the total ion current chromatogram.
Product Profile of Recombinant δ-Selinene Synthase (SEQ ID No:20) In Vitro.

Row | SMILES | sesquiterpene products of δ-selinene synthase, %
1 | CC1=CCCC2(C)CCC(=C(C)C)CC12 (stereo not drawn) [Seli-3,7(11)-diene] | 1.2%
2 | C/C1=C\C=C(\C(C)C)CC/C(C)=C/CC1 [Germacrene C] | 3.4%
3 | C=C(C)[C@@H]1CC[C@H](C)C2=C(C1)[C@@H](C)CC2 [α-Guiaene] | 0.2%
4 | C=C1/C=C/[C@H](C(C)C)CC/C(C)=C/CC1 [Germacrene D] | 0.8%
5 | CC1=C2C=C(C(C)C)CCC2(C)CCC1 (stereo not drawn) [δ-Selinene] | 25.3%
6 | C=C(C)[C@@H]1C/C=C(\C)CC/C=C(\C)CC1 [Germacrene A] | 6.7%
7 | CC1=C[C@H]2C(=C(C)CC[C@H]2C(C)C)CC1 [δ-Amorphene] | 6.4%
8 | C=C1CCCC2(C)CCC(C(C)C)=CC12 (stereo not drawn) [Sibirene] | 0.7%
9 | CC(C)=C1C/C=C(\C)CC/C=C(\C)CC1 [Z-E-Germacrene B (tent.), Z,E-Germacrene B] | 1.3%
10 | CC(C)=C1C/C=C(\C)CC/C=C(\C)CC1 [E,E-Germacrene B] | 17.4%
11 | CC1=C[C@@H]2[C@@H](CC1)C(C)=CC[C@H]2C(C)C [α-Cadinene] | 0.2%
12 | CC1=CC[C@@H]2[C@H]3[C@H](C(C)C)CC[C@]2(C)[C@@H]13 [α-Ylangene] | 0.1%
13 | C=C(CCC=C(C)C)[C@@H]1CC=C(C)CC1 [β-Bisabolene] | 0.7%
14 | C=C1CC/C=C(\C)CC[C@@H]2[C@@H]1CC2(C)C [β-Caryophyllene] | 1.5%
15 | CC1=CCC(C(C)C)=C[C@@H]2[C@H](C)CC[C@H]12 [Guaia-6,9-diene] | 9.7%
16 | CC1=CC[C@H]2[C@H]3[C@@H]1[C@]2(C)CC[C@H]3C(C)C [α-Copaene] | 0.1%
17 | CC1=C[C@@H]2C(=C(C)CC[C@H]2C(C)C)CC1 [δ-Cadinene] | 1.4%
18 | C=C(C)[C@@H]1CC[C@@]2(C)CCC=C(C)[C@@H]2C1 [α-Selinene] | 1.7%
19 | C/C1=C\CC/C(C)=C/CC(C)(C)/C=C/C1 [α-Humulene] | 0.7%
20 | CC1=CC2C(CC1)C(C)=CCC2C(C)C (stereo not drawn) [α-Amorphene] | 2.7%

Each compound was assayed against T2, γ-Humulene Synthase (ag5) (SEQ ID No: 24) (Abies grandis, UniProt O64405) (assay: Product profile of recombinant γ-humulene synthase in vitro (preparative assay, GLC-MS)). Conditions: from [1-3H]farnesyl diphosphate; total ion current chromatogram.
T2 construct: For further subcloning of the amplified, full-length cDNA into the pSBETa vector for high-level expression, the pGAG5 insert was amplified; made in house; host or cells: E. coli XL1-Blue/pGAG5 or E. coli BL21(DE3)/pSBAG5
T2 sequence (O64405 1-593): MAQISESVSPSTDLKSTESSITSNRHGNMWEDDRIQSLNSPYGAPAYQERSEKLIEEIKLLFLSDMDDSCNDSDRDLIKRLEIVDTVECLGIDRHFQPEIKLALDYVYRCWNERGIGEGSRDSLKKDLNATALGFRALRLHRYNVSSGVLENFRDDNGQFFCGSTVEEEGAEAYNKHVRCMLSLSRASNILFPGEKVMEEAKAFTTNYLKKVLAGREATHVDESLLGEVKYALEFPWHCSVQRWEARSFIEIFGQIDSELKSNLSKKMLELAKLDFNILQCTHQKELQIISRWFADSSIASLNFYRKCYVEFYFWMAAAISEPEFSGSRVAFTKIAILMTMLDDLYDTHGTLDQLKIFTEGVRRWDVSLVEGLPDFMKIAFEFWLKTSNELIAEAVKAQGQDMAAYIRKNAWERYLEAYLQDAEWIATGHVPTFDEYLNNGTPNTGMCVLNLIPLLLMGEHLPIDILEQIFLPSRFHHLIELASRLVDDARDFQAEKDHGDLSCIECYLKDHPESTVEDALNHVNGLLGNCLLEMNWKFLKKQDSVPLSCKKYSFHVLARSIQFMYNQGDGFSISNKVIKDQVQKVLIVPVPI
Type: biochemical
Protocol: as §1, §2
Product Profile of Recombinant γ-Humulene Synthase (SEQ ID No:24) In Vitro.

Row | SMILES | sesquiterpene products of γ-humulene synthase, %
21 | CC1=C[C@H]2C(=C(C)CC[C@H]2C(C)C)CC1 [δ-Amorphene] | 0.5%
22 | C=C1CCCC2(C)CCC(C(C)C)=CC12 (stereo not drawn) [Sibirene] | 15.1%
23 | CC(C)=C1C/C=C(\C)CC/C=C(\C)CC1 [Z-E-Germacrene B (tent.), Z,E-Germacrene B] | 0.1%
24 | CC1=C[C@H]2C(=C(C)CCCC2(C)C)CC1 [β-Himachalene] | 7.2%
25 | CC1=CC[C@@]23[C@@H]([C@@H]12)[C@H](C(C)C)CC[C@H]3C [α-Cubebene] | 0.1%
26 | CC(C)=CC/C=C(/C)C1CC=C(C)CC1 (stereo not drawn) [E-α-Bisabolene] | 0.9%
27 | CC1=CC[C@@H]2[C@H]3[C@H](C(C)C)CC[C@]2(C)[C@@H]13 [α-Ylangene] | 2.7%
28 | C=C(CCC=C(C)C)[C@@H]1CC=C(C)CC1 [β-Bisabolene] | 3.9%
29 | C=C1C=CC(C)(C)CCCC(C)=CCC1 [γ-Humulene] | 28.6%
30 | C=C1[C@H]2CC[C@@H]3[C@H]2C(C)(C)CCC[C@]13C [Longifolene] | 11.8%
31 | CC1=CC[C@@H]2[C@@H]3[C@H]1[C@@]2(C)CCCC3(C)C [α-Longipinene] | 3.4%
32 | CC(C)=CCC/C(C)=C1/CC=C(C)CC1 [γ-Bisabolene] | 1.9%
33 | CC(C)C1CCC2(C)C3CC4C(C13)C42C (stereo not drawn) [Cyclosativene] | <0.1%
34 | C=C1CC[C@@]23[C@@H]([C@@H]12)[C@H](C(C)C)CC[C@H]3C [β-Cubebene] | 0.1%
35 | CC1=CC[C@H]2[C@H]3[C@@H]1[C@]2(C)CC[C@H]3C(C)C [α-Copaene] | 0.1%
36 | C=C1CCC2C3C(C(C)C)CCC2(C)C13 (stereo not drawn) [β-Ylangene] | 0.3%
37 | C=C1CCC2C3C1C2(C)CCCC3(C)C (stereo not drawn) [β-Longipinene] | 1.5%
38 | C=C1[C@@H]2CC[C@H]3[C@@H]2[C@@H](C(C)C)CC[C@@]13C [Sativene] | 3.1%
39 | CC1(C)CCC[C@@]2(C)[C@@H]3CC4C([C@@H]31)C42C [Longicyclene] | 0.2%
40 | CC1CCC=C2CCC3C(C3(C)C)C21C (stereo not drawn) [β-Gurjunene] | 2.0%
41 | C=C1CCCC(C)(C)[C@H]2C=C(C)CC[C@@H]12 [α-Himachalene] | 4.8%
42 | C=CC(=C)CC/C=C(\C)CCC=C(C)C [E-β-Farnesene] | 1.3%
43 | CC1=C[C@H]2[C@@H](CC1)C(C)=CCCC2(C)C [γ-Himachalene] | 5.8%
44 | CC1=CCCC(C)=CCCC(C)=CCC1 [1,5,9-trimethylcyclododeca-1,5,9-triene (tent. 2 isomers), 1,5,9-trimethylcyclododeca-1,5,9-triene] | 0.2%
45 | CC1=CC2C(CC1)C(C)=CCC2C(C)C (stereo not drawn) [α-Amorphene] | 0.5%

— patent US6451576B1, “Sesquiterpene synthases from grand fir (Abies grandis), and methods of use” (Washington State University Research Foundation, priority 1998, dated 2002)
